Measured values: US20130052280A1, “USE OF THEBROMINE FOR LOWERING CENTRAL BLOOD PRESSURE” (priority 2010, published 2013)

Assays:
[1] = test system: untreated prehypertensive males and females; test: 24-hour ambulatory blood pressure and heart rate (peripheral BP at the brachial artery), randomised controlled cross-over study; format: in vivo, humans; conditions: for some time after ingestion
Experimental: In a randomised controlled cross-over study with 42 untreated prehypertensive males and females the effect of cocoa-containing drinks either high in polyphenols or high in polyphenols and theobromine was assessed on blood pressure (BP).
The subjects consumed for 3 weeks daily (in the morning before breakfast) 200 ml acidified dairy drink as in table 1, with added to that 1) none (control drink), 2) 3.65 g cocoa powder (Acticoa, Barry-Callebaut) containing 500 mg polyphenols and 79 mg theobromine (amount in product specification Acticoa) and 3) 5 g cocoa powder containing 500 mg polyphenols and 79 mg theobromine plus added thereto 918 mg pure theobromine (Fagron, Ph. […]
Peripheral BP was measured by 24-hours ambulatory BP at the brachial artery, while central blood pressure was measured by applanation tonometry at the radial artery, using a transfer function to estimate central pulse wave forms, systolic and diastolic BP (SBP and DBP, respectively), pulse pressure (SBP-DBP) and augmentation index. […]
An automatic ambulatory BP monitor (Spacelabs 90207, Spacelabs In., Redmond, Wash., USA) was placed on the non-dominant arm in all subjects. Systolic and diastolic BP and heart rate (HR) were recorded over at least 24 h. […]
Baseline data was expressed as mean plus standard deviation for variables with a parametric distribution and median plus range for variables with a skewed distribution. […]

[2] = test system: untreated prehypertensive males and females; test: Central blood pressure by applanation tonometry at the radial artery (pulse wave analysis), randomised controlled cross-over study; format: in vivo, humans
Experimental: In a randomised controlled cross-over study with 42 untreated prehypertensive males and females the effect of cocoa-containing drinks either high in polyphenols or high in polyphenols and theobromine was assessed on blood pressure (BP). The subjects consumed for 3 weeks daily (in the morning before breakfast) 200 ml acidified dairy drink as in table 1, with added to that 1) none (control drink), 2) 3.65 g cocoa powder (Acticoa, Barry-Callebaut) containing 500 mg polyphenols and 79 mg theobromine (amount in product specification Acticoa) and 3) 5 g cocoa powder containing 500 mg polyphenols and 79 mg theobromine plus added thereto 918 mg pure theobromine (Fagron, Ph. […] Peripheral BP was measured by 24-hours ambulatory BP at the brachial artery, while central blood pressure was measured by applanation tonometry at the radial artery, using a transfer function to estimate central pulse wave forms, systolic and diastolic BP (SBP and DBP, respectively), pulse pressure (SBP-DBP) and augmentation index. […] Augmentation index (AIx), defined as the ratio of augmentation to central pulse pressure, is expressed as a percentage: AIx=(ΔP/PP)×100, where P is pressure and PP is pulse pressure. […] Pulse pressure amplification (PPA) is expressed as the ratio of […]: PPA=PPP/CPP. […]

In the case of `Cn1cnc2c1c(=O)[nH]c(=O)n2C` [theobromine, 3,7-dimethylxanthine], the “heart rate after ingestion of the effective amount (in words)” value [1] is reported as “elevated”, the “peripheral BP after ingestion of the effective amount (in words)” value [1] is reported as “elevated” and the “reduction of central blood pressure compared to when theobromine is not ingested” value ([2]; ingestion in an effective amount) is reported as “at least 2 mmHg”. The “reduction of central BP” value ([2]; single daily dose of 1000 mg theobromine, p=0.003) was 3.3%.
